Experimental findings from patent US5171838A, “Leu3a binding peptides” (Kureha Kagaku Kogyo Kabushiki Kaisha, priority 1990, dated 1992) are described below.

This assay has as its target Leu3a binding to CD4. Kind of assay: Leu3a competitive immunoassay (inhibition of biotinylated Leu3a binding to immobilized CD4 membrane fraction). More on the design: species or system human. The settings on record: for IC50 μg/well: D-amino acid-substituted CD4 (49-63); for IC50 μg/well / IC50 /µg/well: peptide amount per well inhibiting Leu3a binding by 50%; for inhibition of Leu3a binding to CD4 (in words): CD4 from MOLT4 cells; for IC50 /µg/well: CD4 fragment peptides, membrane fraction of MOLT4 or CCRF-CEM cells as CD4 source, unit of the source corrected. As for the experimental part: Then, aliquots of solutions containing labeled Leu3a and the peptide to be tested are added. […] After a suitable period of incubation, the solid matrix is washed to remove unbound components and the labeled Leu3a bound is quantitated. In general, any of a number of conventionally labeled Leu3a preparations may be used, including radioactively labeled or enzyme-labeled Leu3a. However, a biotinylated Leu3a used in conjunction with an appropriate secondary reagent such as a complex of avidin-biotin-horseradish peroxidase is preferred. This secondary reagent specifically binds to the biotinylated Leu3a. A chromogenic substrate is added to the complex, enabling one to measure the amount of Leu3a bound as a function of absorbance.
Two million cells, suspended in 2 ml of 40 mM HEPES (4-(2-hydroxyethyl)-1-piperazine ethanesulfonic acid) buffer (pH 7.4) containing 1 mM EGTA (ethylene-bis-(oxyethylene-nitrilo)-tetraacetic acid), 1 mM PMSF (phenylmethylsulfonylfluoride), 1,000 KIU/ml aprotinin and 150 mM sodium chloride, were lysed by two (2) successive 15 second cycles of ultrasonication and centrifuged at 100×g for five (5) minutes. The supernatant was collected and centrifuged at 15,000×g for ten minutes. The precipitate was resuspended in 1 ml of 50 mM sodium bicarbonate buffer, ultrasonicated by three (3) successive 15 second cycles, and mixed with 1 ml of 50 mM sodium bicarbonate buffer to obtain the cellular membrane suspension. Then, 50 μl of the membrane suspension was added to each well of a 96 well microtiter plate. After overnight incubation at 4° C., the buffer was removed and the adsorbed membrane fraction was fixed by addition of 50 μl of 10 mM PBS (phosphate buffered saline) containing 0.2% glutaraldehyde. After three (3) minutes at room temperature, the glutaraldehyde buffer was removed and the plates were washed five times with PBS. Then, 350 μl of PBS containing 2% bovine serum albumin (BSA) was added to each well to block subsequently added proteins from binding non-specifically to the plastic. After blocking at room temperature for one (1) hour, the blocking buffer was removed and the plates were washed five times with 0.2% BSA solution in PBS (BPBS).
The following dilutions of each peptide in BPBS--were prepared: 10 μg/ml; 20 μg/ml; 40 μg/ml; 100 μg/ml; 200 μg/ml, 400 μg/ml; 1 mg/ml and 2 mg/ml. A 50 μl aliquot of each dilution of a selected peptide was added to a well of a microtiter plate, together with 25 μl of a solution containing 600 ng/ml biotin-conjugated Leu3a (Becton Dickinson Immunocytometry Systems) in BPBS so that each well contained either 0.5, 1, 2, 5, 10, 20, 50 or 100 μg of peptide in a total volume of 75 μl. After overnight incubation at 4° C., the reaction mixture was removed and the plates were washed eight times with BPBS containing 0.05% Tween 20.
A solution containing a complex of avidin DH (reagent A) and biotinylated horseradish peroxidase H (reagent B) was prepared by adding 90 μl of reagent A and 90 μl of reagent B (ABC Kit:Vector Laboratories, Inc.) to 5 ml of BPBS containing 0.05% Tween 20.
Then, 50 μl of the enzyme complex solution was added to each well, and the plates were incubated at room temperature for four (4) hours. The reaction buffer was removed and the plates were washed eight times with 20 mM imidazole buffered saline containing 0.02% Tween 20. Equal volumes of substrate solution A (ABTS; 2,2'-azino-di[3-ethyl-benzthiazoline sulfonate]) and substrate solution B (hydrogen peroxide) (Hybri-Clonal™ EIA Screening Kit: Kirkegaard & Perry Laboratories, Inc.) were mixed, and 100 μl of the substrate solution mixture was added to each well. After incubation at room temperature for one (1) hour, absorbance at 405 nm was measured by microplate reader model MPR-A4 (Tosoh Co., Ltd.).
Leu3a binding, as measured by absorbance, was calculated and plotted against peptide concentration to obtain a competitive inhibition curve.

“Also recorded” adds a separate entry of the source. Where a SMILES comes first, the peptide text is derived from it. Where no end group is shown, it is not given here. [ ]: non-standard residue; d: D form.

In the case of `CC(C)C[C@H](NC(=O)[C@H](CO)NC(=O)[C@H](CCCNC(=N)N)NC(=O)[C@@H](CCCNC(=N)N)NC(=O)[C@H](CO)NC(=O)[C@H](CC(=O)O)NC(=O)[C@@H](C)NC(=O)[C@H](CCCNC(=N)N)NC(=O)[C@H](CC(=O)O)NC(=O)[C@H](CC(N)=O)NC(=O)[C@H](CC(C)C)NC(=O)[C@H](CCCCN)NC(=O)[C@@H](N)CO)C(=O)N[C@@H](Cc1c[nH]c2ccccc12)C(=O)N[C@@H](CC(=O)O)C(=O)O` [[D-Ala^55,D-Arg^58]-CD4(49-63)] (H-SKLNDR[dA]DS[dR]RSLWD-OH), the “IC50 μg/well” value turned out to be 36 μg/well.

For the molecule `CC(C)C[C@H](NC(=O)[C@H](CCCCN)NC(=O)[C@@H](N)CO)C(=O)N[C@@H](CC(N)=O)C(=O)N[C@@H](CC(=O)O)C(=O)N[C@@H](CCCNC(=N)N)C(=O)N[C@H](C)C(=O)N[C@@H](CC(=O)O)C(=O)N[C@@H](CO)C(=O)N[C@@H](CCCNC(=N)N)C(=O)N[C@H](CCCNC(=N)N)C(=O)N[C@@H](CO)C(=O)N[C@@H](CC(C)C)C(=O)N[C@@H](Cc1c[nH]c2ccccc12)C(=O)N[C@@H](CC(=O)O)C(=O)O` [[D-Ala^55,D-Arg^59]-CD4(49-63)] (H-SKLNDR[dA]DSR[dR]SLWD-OH), the “IC50 μg/well” value was determined as 23 μg/well.

For the molecule `CC(C)C[C@H](NC(=O)[C@H](CO)NC(=O)[C@H](CCCNC(=N)N)NC(=O)[C@H](CCCNC(=N)N)NC(=O)[C@@H](CO)NC(=O)[C@H](CC(=O)O)NC(=O)[C@@H](C)NC(=O)[C@H](CCCNC(=N)N)NC(=O)[C@H](CC(=O)O)NC(=O)[C@H](CC(N)=O)NC(=O)[C@H](CC(C)C)NC(=O)[C@H](CCCCN)NC(=O)[C@@H](N)CO)C(=O)N[C@@H](Cc1c[nH]c2ccccc12)C(=O)N[C@@H](CC(=O)O)C(=O)O` [[D-Ala^55,D-Ser^57]-CD4(49-63)] (H-SKLNDR[dA]D[dS]RRSLWD-OH), the “IC50 μg/well” value was 10 μg/well.

For the molecule `CC(C)C[C@H](NC(=O)[C@H](CO)NC(=O)[C@H](CCCNC(=N)N)NC(=O)[C@H](CCCNC(=N)N)NC(=O)[C@H](CO)NC(=O)[C@H](CC(=O)O)NC(=O)[C@@H](C)NC(=O)[C@H](CCCNC(=N)N)NC(=O)[C@H](CC(=O)O)NC(=O)[C@H](CC(N)=O)NC(=O)[C@H](CC(C)C)NC(=O)[C@H](CCCCN)NC(=O)[C@@H](N)CO)C(=O)N[C@@H](Cc1c[nH]c2ccccc12)C(=O)N[C@@H](CC(=O)O)C(=O)O` [[D-Ala^55]-CD4(49-63)] (H-SKLNDR[dA]DSRRSLWD-OH), the “IC50 μg/well” value was determined as 32 μg/well.

Turning to `CC(C)C[C@H](NC(=O)[C@H](CO)NC(=O)[C@H](CCCNC(=N)N)NC(=O)[C@H](CCCNC(=N)N)NC(=O)[C@H](CO)NC(=O)[C@H](CC(=O)O)NC(=O)[C@@H](C)NC(=O)[C@H](CCCNC(=N)N)NC(=O)[C@H](CC(=O)O)NC(=O)[C@@H](CC(N)=O)NC(=O)[C@H](CC(C)C)NC(=O)[C@H](CCCCN)NC(=O)[C@@H](N)CO)C(=O)N[C@@H](Cc1c[nH]c2ccccc12)C(=O)N[C@@H](CC(=O)O)C(=O)O` [[D-Asn^52,D-Ala^55]-CD4(49-63)] (H-SKL[dN]DR[dA]DSRRSLWD-OH), the “IC50 μg/well” value is 60 μg/well.

For `CC(C)C[C@H](NC(=O)[C@H](CO)NC(=O)[C@H](CCCNC(=N)N)NC(=O)[C@H](CCCNC(=N)N)NC(=O)[C@H](CO)NC(=O)[C@@H](CC(=O)O)NC(=O)[C@H](C)NC(=O)[C@H](CCCNC(=N)N)NC(=O)[C@H](CC(=O)O)NC(=O)[C@H](CC(N)=O)NC(=O)[C@H](CC(C)C)NC(=O)[C@H](CCCCN)NC(=O)[C@@H](N)CO)C(=O)N[C@@H](Cc1c[nH]c2ccccc12)C(=O)N[C@@H](CC(=O)O)C(=O)O` [[D-Asp^56]-CD4(49-63)] (H-SKLNDRA[dD]SRRSLWD-OH), the “IC50 μg/well” value is 56 μg/well.

Consider `CC(C)C[C@H](NC(=O)[C@H](CO)NC(=O)[C@@H](CCCNC(=N)N)NC(=O)[C@H](CCCNC(=N)N)NC(=O)[C@H](CO)NC(=O)[C@H](CC(=O)O)NC(=O)[C@@H](C)NC(=O)[C@H](CCCNC(=N)N)NC(=O)[C@H](CC(=O)O)NC(=O)[C@H](CC(N)=O)NC(=O)[C@H](CC(C)C)NC(=O)[C@@H](CCCCN)NC(=O)[C@@H](N)CO)C(=O)N[C@@H](Cc1c[nH]c2ccccc12)C(=O)N[C@@H](CC(=O)O)C(=O)O` [[D-Lys^50,D-Ala^55,D-Arg^59]-CD4(49-63)] (H-S[dK]LNDR[dA]DSR[dR]SLWD-OH), for which the “inhibition of Leu3a binding to CD4 (in words)” value (“inhibition of Leu3a binding” for short) is given as “exhibited inhibitory activity” and the “IC50 μg/well” value was found to be 25 μg/well.

Take `CC(C)C[C@H](NC(=O)[C@@H](CCCCN)NC(=O)[C@@H](N)CO)C(=O)N[C@@H](CC(N)=O)C(=O)N[C@@H](CC(=O)O)C(=O)N[C@@H](CCCNC(=N)N)C(=O)N[C@H](C)C(=O)N[C@@H](CC(=O)O)C(=O)N[C@@H](CO)C(=O)N[C@@H](CCCNC(=N)N)C(=O)N[C@@H](CCCNC(=N)N)C(=O)N[C@@H](CO)C(=O)N[C@H](CC(C)C)C(=O)N[C@@H](Cc1c[nH]c2ccccc12)C(=O)N[C@@H](CC(=O)O)C(=O)O` [[D-Lys^50,D-Ala^55,D-Leu^61]-CD4(49-63)] (H-S[dK]LNDR[dA]DSRRS[dL]WD-OH): the “IC50 μg/well” value is recorded as 22 μg/well.

As to `CC(C)C[C@H](NC(=O)[C@H](CO)NC(=O)[C@H](CCCNC(=N)N)NC(=O)[C@H](CCCNC(=N)N)NC(=O)[C@H](CO)NC(=O)[C@H](CC(=O)O)NC(=O)[C@@H](C)NC(=O)[C@H](CCCNC(=N)N)NC(=O)[C@H](CC(=O)O)NC(=O)[C@H](CC(N)=O)NC(=O)[C@H](CC(C)C)NC(=O)[C@@H](CCCCN)NC(=O)[C@@H](N)CO)C(=O)N[C@@H](Cc1c[nH]c2ccccc12)C(=O)N[C@@H](CC(=O)O)C(=O)O` [[D-Lys^50,D-Ala^55]-CD4(49-63)] (H-S[dK]LNDR[dA]DSRRSLWD-OH), the “IC50 μg/well” value stood at 36 μg/well.

With KLNDRADSRRSLWD [CD4 (50-63)], the IC50 /µg/well was over 500 µg/well and the “inhibition of Leu3a binding” value is given as “very weak inhibiting activity”.

As to KNSNQIKILGNQGSFLTKG [CD4 (29-47)], the IC50 /µg/well amounted to 500 µg/well.

Regarding SKLNDRADSRRSLW [CD4 (49-62)], the IC50 /µg/well is over 500 µg/well and the “inhibition of Leu3a binding” value is given as “very weak inhibiting activity”.

For “SKLNDRADSRRSLWD [CD4 (49-63), ser-lys-leu-asn-asp-arg-ala-asp-ser-arg-arg-ser-leu-trp-asp]”, the IC50 /µg/well was determined as 10 µg/well and the “inhibition of Leu3a binding” value is “strongly inhibited; also recorded: exceptionally strong inhibitory activity”.
